Reference: PubChem BioAssay (NCI)
Where “and” joins values, the source holds several entries; their conditions need not be identical. Equal values may be shown once.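 Grown in 96-well plates, cells were treated for 48 hours with each compound at five concentrations. Insufficient inhibition: endpoint recorded as highest concentration tested. At the GI50, growth is halved. TGI is the concentration that stops growth completely.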

Tests used:
Test in all cases: DTP human tumour cell line panel, 48 h
SF-295 CNS = tested on: SF-295 CNS
OVCAR-5 ovarian = tested on: OVCAR-5 ovarian
HOP-62 NSCLC = tested on: HOP-62 NSCLC
HCT-116 colon = tested on: HCT-116 colon
NCI-H522 lung = tested on: NCI-H522 lung
SNB-19 CNS = tested on: SNB-19 CNS
NCI-H23 lung = tested on: NCI-H23 lung
COLO 205 colon = tested on: COLO 205 colon
HS 578T breast = tested on: HS 578T breast
MOLT-4 leukemia = tested on: MOLT-4 leukemia

Row | Compound | GI50 (SF-295 CNS) | TGI (SF-295 CNS) | GI50 (OVCAR-5 ovarian) | TGI (OVCAR-5 ovarian) | GI50 (HOP-62 NSCLC) | TGI (HOP-62 NSCLC) | GI50 (HCT-116 colon) | TGI (HCT-116 colon) | GI50 (NCI-H522 lung) | TGI (NCI-H522 lung) | GI50 (SNB-19 CNS) | TGI (SNB-19 CNS) | GI50 (NCI-H23 lung) | TGI (NCI-H23 lung) | TGI (COLO 205 colon) | GI50 (HS 578T breast) | TGI (HS 578T breast) | GI50 (MOLT-4 leukemia) | TGI (MOLT-4 leukemia) | GI50 (COLO 205 colon)
1 | COc1ccc2nc3cccc([N+](=O)[O-])c3c(NCCCCCC(=O)O)c2c1 | 0.447 µM | 4.55 µM | 0.132 µM | 1.11 µM | 0.0277 µM | 0.187 µM | 0.0107 µM | 3.51 µM | 0.0363 µM | 0.101 µM | 0.178 µM | 2.84 µM | 0.952 µM | 4.19 µM | 0.078 µM | 0.456 µM | 2.03 µM | 0.0266 µM | 0.284 µM | 
2 | COc1cnc2c(c1)C(=O)c1c-2n(CCCn2ccnc2)c(=O)c2cc(F)ccc12 | < 0.01 µM | 0.352 µM | 0.119 µM | 0.789 µM | < 0.01 µM | 0.176 µM | < 0.01 µM | 0.141 µM | < 0.01 µM | 0.169 µM | < 0.01 µM | 11.4 µM | 0.0171 µM | 0.565 µM | 0.297 µM | 0.504 µM | > 100 µM | < 0.01 µM | 0.131 µM | 0.0228 µM
3 | COc1ccc(-c2c[nH]c(C(=O)O)c2-c2cc(OC)c(OC)c(OC)c2)cc1 | 4.19 µM | > 100 µM | 9.98 µM | > 100 µM | 5.87 µM | > 100 µM | 5.02 µM | > 100 µM | 2.75 µM | > 100 µM | 7.24 µM | > 100 µM | 7.77 µM | > 100 µM | 17 µM | 3.42 µM | > 100 µM | 4.95 µM | > 100 µM | 3.31 µM
4 | COc1cc(/C=C/C(=O)c2cccc(Nc3nc(Nc4ccccc4)nc(Nc4ccccc4)n3)c2)cc(OC)c1OC | 2.58 µM |  | 38.4 µM | > 100 µM | 23.5 µM | > 94.5 µM | 2.68 µM | > 66.6 µM | 5.11 µM | > 100 µM | 10.1 µM | > 100 µM | 6.07 µM | > 100 µM | 30.7 µM | 4.83 µM | > 54.4 µM | 1.07 µM | 4.38 µM | 4.77 µM
5 | COc1cc(C[C@H]2c3cc(OC)c(OC)cc3CCN2C)c(Oc2cc3c(cc2OC)-c2c(OC)c(OC)cc4c2[C@H](C3)N(C)CC4)cc1OC | 16.5 µM | 21 µM and 30.7 µM | 18 µM | 33.6 µM and 32.6 µM | 19.9 µM | 24 µM and 35.6 µM | 10.4 µM | 14 µM and 22.4 µM | 5.13 µM | 16.2 µM and 17 µM | 20.3 µM | 41.8 µM and 54 µM | 17.8 µM | 30.2 µM and 36.2 µM | 12.6 µM and 8.09 µM |  | 13.1 µM | 4.06 µM | 20.4 µM and 12.2 µM | 2.17 µM
6 | FC(F)(F)c1ccc(Nc2nc(-c3c(C(F)(F)F)nc4ccccn34)cs2)cc1 | 0.033 µM | 1.28 µM | 0.476 µM | 16.5 µM | 0.0564 µM | 9.14 µM | 0.0426 µM | 2.38 µM | 0.0284 µM | 0.754 µM | 0.0625 µM | 18.5 µM | 0.0579 µM | 5.51 µM | 0.167 µM | 0.0356 µM | 2.12 µM | 0.146 µM | > 28.7 µM | 0.0323 µM
7 | COC(=O)C1(C)CCC(c2ccc(C)cc2)=C(CC(=O)O)C1 (configuration not stated) |  | > 100 µM |  | > 100 µM |  | > 100 µM |  | > 100 µM |  | > 100 µM |  | > 100 µM |  | > 100 µM | > 100 µM |  | > 100 µM |  | > 100 µM | 
8 | COc1c(C)c2c(c(O)c1C/C=C(\C)CCC(=O)O)C(=O)OC2 | 0.278 µM | > 100 µM | 1.79 µM | > 100 µM | 0.512 µM | > 100 µM | 0.145 µM | > 100 µM | 0.262 µM | > 100 µM | 0.286 µM | > 100 µM | 0.282 µM | > 100 µM | > 100 µM | 0.853 µM | > 100 µM | 0.208 µM | > 100 µM | 0.416 µM
9 | CCN(CC)CCCC(C)Nc1ccnc2cc(Oc3ccccc3)ccc12 (configuration not stated) | 2.69 µM and 4.09 µM | 17.4 µM and 19 µM | 13.1 µM and 13.4 µM | 41.3 µM and 44.1 µM | 7.45 µM and 11.5 µM | 21.7 µM and 37.4 µM | 2.59 µM and 3.03 µM | 13.1 µM and 21.9 µM | 3.06 µM and 3.77 µM | 13 µM and 17 µM | 15.8 µM and 25.4 µM | 66.3 µM and > 100 µM | 10.4 µM and 22.8 µM | 28.7 µM and > 100 µM | 4.4 µM and 3.94 µM | 5.5 µM and 16.7 µM | 24.3 µM and 56.5 µM | 4.32 µM and 9.05 µM | 17.8 µM and 82.8 µM | 1.88 µM and 1.65 µM
10 | CN[C@@H](C)C(=O)N[C@H](C(=O)N1CCC[C@H]1C(=O)Nc1snnc1-c1ccccc1)C1CCCCC1 | 34.4 µM | > 100 µM | > 100 µM | > 100 µM | 26.5 µM | > 100 µM | 41.6 µM | > 100 µM | 18.3 µM | 53.4 µM | > 100 µM | > 100 µM | 38.4 µM | > 100 µM | 42.1 µM | 72.8 µM | > 100 µM | 36.6 µM | > 100 µM | 21.6 µM
11 | C=C(C)C(=O)Nc1ccc(NC(C)C)cc1 | > 100 µM | > 100 µM | > 100 µM | > 100 µM | > 100 µM | > 100 µM | > 100 µM | > 100 µM | > 100 µM | > 100 µM | > 100 µM | > 100 µM | > 100 µM | > 100 µM | > 100 µM | > 100 µM | > 100 µM | > 100 µM | > 100 µM | > 100 µM
12 | CCC(C)(CC(C)(C)C(=O)NCC(=O)NC(Cc1ccccc1)C(=O)NC(Cc1ccccc1)C(=O)NCC(=O)NC1CC(OC2CC(O)(C(=O)CO)Cc3c(O)c4c(c(O)c32)C(=O)c2c(OC)cccc2C4=O)OC(C)C1O)C(=O)NCC(C)O (configuration not stated) | 75.9 µg/mL | > 150 µg/mL | > 150 µg/mL | > 150 µg/mL | 63.7 µg/mL | > 150 µg/mL | 55.3 µg/mL | > 150 µg/mL | 45.5 µg/mL | > 150 µg/mL | 69.2 µg/mL | > 150 µg/mL | 72.9 µg/mL | > 150 µg/mL | > 150 µg/mL | > 150 µg/mL | > 150 µg/mL | 7.84 µg/mL | 96.6 µg/mL | 102 µg/mL
